Measurements as given in patent US20220242870A1, “HETEROCYCLE-FUSED PYRIMIDINE DERIVATIVE AND USE THEREOF” (VORONOI Inc., priority 2019, published 2022).

Tests used:
human GST-HPK1 (1-346) = biological target: T1, human GST-HPK1 (1-346) (Homo sapiens, UniProt Q92918); experiment: HPK1 enzyme inhibitory ability (ADP-Glo kinase assay); type: biochemical; conditions: human GST-HPK1 3 ng, ATP 3 uM, 25° C. 2 hours
T1 construct: purified human GST-HPK1 (1-346, Signalchem) enzyme; purchased Signalchem
T1 sequence (Q92918 1-346): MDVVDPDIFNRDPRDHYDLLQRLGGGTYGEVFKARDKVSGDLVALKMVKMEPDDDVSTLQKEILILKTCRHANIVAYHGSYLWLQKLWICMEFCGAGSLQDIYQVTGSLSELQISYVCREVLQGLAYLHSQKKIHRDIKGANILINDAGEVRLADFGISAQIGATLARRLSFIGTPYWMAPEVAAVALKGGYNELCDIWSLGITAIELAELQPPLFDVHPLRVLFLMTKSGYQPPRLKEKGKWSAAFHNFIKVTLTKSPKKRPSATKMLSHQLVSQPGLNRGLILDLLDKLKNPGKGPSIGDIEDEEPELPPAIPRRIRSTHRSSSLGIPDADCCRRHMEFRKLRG
Method: In order to evaluate the inhibitory activities of the example compounds according to the present invention on the HPK1 (hematopoietic progenitor kinase 1) enzyme, the following experiment was performed. The example compounds were reacted with the purified human GST-HPK1 (1-346, Signalchem) enzyme to evaluate the enzyme inhibitory ability by the following method. As the reaction buffer, a composition of 40 mM Tris-HCl pH 7.4, 20 mM MgCl2, 0.5 mg/mL BSA and 50 uM DTT was used, and reactions of all test matters were performed on the reaction buffer. Upon the test, the human GST-HPK1 (3 ng) enzyme, the purified ATP (3 uM) and a specific substrate solution were reacted at 25° C. for 2 hours, and then the enzyme activity was identified using an in vitro ADP-Glo™ kinase assay (promega). The enzyme activity reaction solution, the ADP-Glo reaction solution and the enzyme ability detection solution were reacted in a ratio of 2:2:1 to measure luminescence. The enzyme activity inhibition degree according to the treatment concentrations of the respective compounds was calculated based on the fluorescence of the enzyme activity of the solvent control group that was not treated with the compound, where the concentration of each compound that inhibited enzyme activity inhibition by 50% was determined as an IC50 (nM) value.

human FLT3-ITD enzyme = biological target: T2, human FLT3-ITD enzyme (Homo sapiens, UniProt P36888); experiment: FLT3 enzyme inhibitory ability (ADP-Glo kinase assay); type: biochemical; conditions: human FLT3-ITD enzyme 10 ng, ATP 10 μM, 25° C. 1 hour
T2 sequence (P36888 1-993): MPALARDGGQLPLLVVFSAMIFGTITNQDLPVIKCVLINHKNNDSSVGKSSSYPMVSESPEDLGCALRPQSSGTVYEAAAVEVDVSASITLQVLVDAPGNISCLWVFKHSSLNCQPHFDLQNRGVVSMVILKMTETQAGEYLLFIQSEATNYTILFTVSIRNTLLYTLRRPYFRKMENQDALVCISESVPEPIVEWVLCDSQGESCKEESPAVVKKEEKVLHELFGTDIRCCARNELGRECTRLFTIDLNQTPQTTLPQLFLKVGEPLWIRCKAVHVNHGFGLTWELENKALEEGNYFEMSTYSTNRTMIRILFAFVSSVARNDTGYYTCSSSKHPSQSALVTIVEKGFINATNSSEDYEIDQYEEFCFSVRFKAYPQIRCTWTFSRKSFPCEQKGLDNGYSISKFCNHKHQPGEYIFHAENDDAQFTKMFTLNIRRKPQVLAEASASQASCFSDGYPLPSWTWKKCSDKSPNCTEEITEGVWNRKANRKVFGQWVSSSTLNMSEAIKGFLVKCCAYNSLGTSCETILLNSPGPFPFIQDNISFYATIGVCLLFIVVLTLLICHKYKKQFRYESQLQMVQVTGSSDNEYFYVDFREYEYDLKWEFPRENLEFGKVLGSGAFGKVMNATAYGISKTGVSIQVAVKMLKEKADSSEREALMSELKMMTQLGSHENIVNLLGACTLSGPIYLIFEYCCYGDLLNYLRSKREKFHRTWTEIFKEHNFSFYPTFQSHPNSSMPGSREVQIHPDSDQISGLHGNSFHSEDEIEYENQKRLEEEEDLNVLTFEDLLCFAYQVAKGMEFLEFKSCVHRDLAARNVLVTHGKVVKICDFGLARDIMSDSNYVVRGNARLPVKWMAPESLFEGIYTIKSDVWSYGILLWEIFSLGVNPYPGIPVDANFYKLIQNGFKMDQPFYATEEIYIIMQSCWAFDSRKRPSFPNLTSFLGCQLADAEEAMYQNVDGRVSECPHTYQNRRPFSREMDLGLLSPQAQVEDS
Method: The inhibitory activities of the example compounds according to the present invention to the FLT3-ITD enzyme were evaluated. Specifically, the compound of the present invention was reacted with a purified human FLT3-ITD enzyme (Signalchem). A composition of 40 mM Tris-HCl pH 7.4, 20 mM MgCl2, 0.5 mg/mL BSA and 50 μM DTT was used as a reaction buffer, and reactions of all test matters were performed on the reaction buffer. Upon the test, human FLT3-ITD enzyme (10 ng), purified ATP (10 μM) and a specific substrate solution were reacted at 25° C. for 1 hour, and then the enzyme activity was identified using an in vitro ADP-Glo™ kinase assay (Promega). The enzyme activity reaction solution, the ADP-Glo reaction solution and the enzyme ability detection solution were reacted in a ratio of 2:2:1, and the activity inhibition degree of the enzyme was measured as luminescence. Using the solvent-treated group that was not treated with the compound as a control group, the enzyme activity inhibition degree according to the treatment concentration of each compound was calculated based on the enzyme activity fluorescence degree, and the concentration of each compound that inhibited 50%, IC50 (nM), was determined using Prism Software (version 5.01, GraphPad).

MCF-7 cells = experiment: Breast cancer cell line proliferation inhibitory activity (CellTiter-Glo 2.0); type: cell-based; conditions: Homo sapiens, MCF7, 120 hours
Method: In order to evaluate the breast cancer cell line cell proliferation inhibitory activities of Examples according to the present invention, the following experiment was performed. Breast cancer cells of MCF-7 (Korean Cell Line Bank) were planted in a clear bottom white 96-well plate (Corning) so as to be 3×10^3/150 μl/well, and a culture solution comprising the compound continuously diluted in multiples of 3 at 12 concentrations (0.00001-2 mM) and a DMSO control group was added by 0.5 μl/well and treated so that the final concentration was 0.00005-10 μM, and then cultured in a 37° C. CO2 incubator for 120 hours. After 120 hours, the plate treated with the compound is taken out, and CellTiter-Glo® 2.0 Assay (Promega) solution is treated at 150 μl/well and then they mix well. They mix well at room temperature for 10 minutes or so, and the fluorescence is measured with a microplate reader. The data were expressed as a percentage in proportion to the vehicle standard treated cells, the GI50 (nM) values were calculated using GraphPad Prism 8.3.0 (GraphPad software Inc., San Diego), and the results were shown in Table 3 below.

SMILES | IC50 (human GST-HPK1 (1-346)) | IC50 (human FLT3-ITD enzyme) | GI50 (MCF-7 cells)
COc1cc(Nc2nc(N3OCC[C@@H]3c3ccccc3)c3sccc3n2)ccc1N1CCC(N2CCN(C)CC2)CC1 [Example 58, (R)-N-(3-methoxy-4-(4-(4-methylpiperazin-1-yl)piperidin-1-yl)phenyl)-4-(3-phenylisoxazolidin-2-yl)thieno[3,2-d]pyrimidin-2-amine] | > 500 nM | > 500 nM | > 500 nM
CN1CCN(c2ccc(Nc3nc(N4OCC[C@@H]4c4ccccc4)c4sccc4n3)cc2)CC1 [Example 60, (R)-N-(4-(4-methylpiperazin-1-yl)phenyl)-4-(3-phenylisoxazolidin-2-yl)thieno[3,2-d]pyrimidin-2-amine] | > 500 nM | > 500 nM | > 500 nM
CN(C)[C@@H]1CCN(c2cccc(Nc3nc(N4OCC[C@H]4c4ccccc4)c4sccc4n3)c2)C1 [Example 61, N-(3-((R)-3-(dimethylamino)pyrrolidin-1-yl)phenyl)-4-((S)-3-phenylisoxazolidin-2-yl)thieno[3,2-d]pyrimidin-2-amine] | > 500 nM | > 500 nM | > 500 nM
CN(C)[C@H]1CCN(c2cccc(Nc3nc(N4OCC[C@H]4c4ccccc4)c4sccc4n3)c2)C1 [Example 62, N-(3-((S)-3-(dimethylamino)pyrrolidin-1-yl)phenyl)-4-((S)-3-phenylisoxazolidin-2-yl)thieno[3,2-d]pyrimidin-2-amine] | > 500 nM | > 500 nM | > 500 nM
CN(C)[C@@H]1CCN(c2cccc(Nc3nc(N4OCC[C@@H]4c4ccccc4)c4sccc4n3)c2)C1 [Example 63, N-(3-((R)-3-(dimethylamino)pyrrolidin-1-yl)phenyl)-4-((R)-3-phenylisoxazolidin-2-yl)thieno[3,2-d]pyrimidin-2-amine] | > 500 nM | > 500 nM | > 500 nM
COc1cc(Nc2nc(N3OCC[C@H]3c3ccccc3)c3cc[nH]c3n2)cc(C(=O)N2CCN(CCO)CC2)c1 [Example 94, (S)-(4-(2-hydroxyethyl)piperazin-1-yl)(3-methoxy-5-((4-(3-phenylisoxazolidin-2-yl)-7H-pyrrolo[2,3-d]pyrimidin-2-yl)amino)phenyl)methanone] | > 500 nM | > 500 nM | –
COc1ccc2c(c1Nc1nc(N3OCC[C@H]3c3ccccc3)c3cc[nH]c3n1)CCN(C)C2 [Example 114, (S)-6-methoxy-2-methyl-N-(4-(3-phenylisoxazolidin-2-yl)-7H-pyrrolo[2,3-d]pyrimidin-2-yl)-1,2,3,4-tetrahydroisoquinolin-5-amine] | > 500 nM | – | –
COc1cc2c(cc1Nc1nc(N3OCC[C@H]3c3ccccc3)c3c(C#N)c[nH]c3n1)CN(C1CC1)CC2 [Example 122, (S)-2-((2-cyclopropyl-6-methoxy-1,2,3,4-tetrahydroisoquinolin-7-yl)amino)-4-(3-phenylisoxazolidin-2-yl)-7H-pyrrolo[2,3-d]pyrimidine-5-carbonitrile] | > 500 nM | – | –
FC(F)(F)c1c[nH]c2nc(Nc3ccc4c(c3)CCNC4)nc(N3OCC[C@H]3c3ccccc3)c12 [Example 124, (S)-N-(4-(3-phenylisoxazolidin-2-yl)-5-(trifluoromethyl)-7H-pyrrolo[2,3-d]pyrimidin-2-yl)-1,2,3,4-tetrahydroisoquinolin-6-amine] | > 500 nM | – | –

Now from value to compound:

IC50 (human GST-HPK1 (1-346)) | IC50 (human FLT3-ITD enzyme) | GI50 (MCF-7 cells) | SMILES
> 500 nM | > 500 nM | > 500 nM | OCCN1CC[C@@H](Oc2cc(Nc3nc(N4N=CCC4c4ccccc4)c4sccc4n3)cc(C3CC3)c2)C1 (stereo partly drawn) [Example 14, 2-((3R)-3-(3-cyclopropyl-5-((4-(5-phenyl-4,5-dihydro-1H-pyrazol-1-yl)thieno[3,2-d]pyrimidin-2-yl)amino)phenoxy)pyrrolidin-1-yl)ethan-1-ol]
> 500 nM | > 500 nM | > 500 nM | COc1cc(Nc2nc(N3N=CCC3c3ccccc3)c3sccc3n2)cc(C(=O)N2CCN(CCO)CC2)c1 (centres unmarked) [Example 15, (4-(2-hydroxyethyl)piperazin-1-yl)(3-methoxy-5-((4-(5-phenyl-4,5-dihydro-1H-pyrazol-1-yl)thieno[3,2-d]pyrimidin-2-yl)amino)phenyl)methanone]
> 500 nM | > 500 nM | > 500 nM | CN(C)[C@@H]1CCN(c2cccc(Nc3nc(N4N=CCC4c4ccccc4)c4sccc4n3)c2)C1 (stereo partly drawn) [Example 17, N-(3-((R)-3-(dimethylamino)pyrrolidin-1-yl)phenyl)-4-(5-phenyl-4,5-dihydro-1H-pyrazol-1-yl)thieno[3,2-d]pyrimidin-2-amine]
> 500 nM | > 500 nM | > 500 nM | CN(C)[C@H]1CCN(c2cccc(Nc3nc(N4N=CCC4c4ccccc4)c4sccc4n3)c2)C1 (stereo partly drawn) [Example 18, N-(3-((S)-3-(dimethylamino)pyrrolidin-1-yl)phenyl)-4-(5-phenyl-4,5-dihydro-1H-pyrazol-1-yl)thieno[3,2-d]pyrimidin-2-amine]
> 500 nM | > 500 nM | > 500 nM | CN(C)[C@H]1CCN(c2cccc(Nc3nc(N4OCC[C@@H]4c4ccccc4)c4sccc4n3)c2)C1 [Example 64, N-(3-((S)-3-(dimethylamino)pyrrolidin-1-yl)phenyl)-4-((R)-3-phenylisoxazolidin-2-yl)thieno[3,2-d]pyrimidin-2-amine]
> 500 nM | > 500 nM | > 500 nM | OCCN1CC[C@@H](Oc2cc(Nc3nc(N4OCC[C@H]4c4ccccc4)c4sccc4n3)cc(C3CC3)c2)C1 [Example 65, 2-((R)-3-(3-cyclopropyl-5-((4-((S)-3-phenylisoxazolidin-2-yl)thieno[3,2-d]pyrimidin-2-yl)amino)phenoxy)pyrrolidin-1-yl)ethan-1-ol]
